Values of other authors, collected in patent US20210308040A1, “KETAMINE ORAL TRANSMUCOSAL DELIVERY SYSTEM” (GUANGZHOU DAZHOU BIOMEDICINE LTD., priority 2018, published 2021).

Key:
[1] = in vivo
[2] = ketamine 0.3 mg/kg vs morphine 0.1 mg/kg, intravenous push
[3] = not given; remark: listed apart in the source
[4] = 33 CRPS patients; about 23 mg/hr for about 4.7 days
NMDA receptor = details: in vitro
[5] = test system: experimentally induced ischemic pain
orofacial pain = details: fixed doses
[6] = 0 to 24 hours postoperatively; bolus 0.5 mg/kg and infusion 0.25 mg/kg/hr
NMDAR = details: rodent species
[7] = not given; remark: listed apart in the source

CNC1(c2ccccc2Cl)CCCCC1=O (racemic) [ketamine]
onset of antidepressant effect after administration [1]: ≤ 2 h | primary change in mean pain scores versus morphine [2]: no significant differences | absolute oral bioavailability (humans): 10-20% | half-life (in vivo): 2 to 3 h | systemic (primarily hepatic) clearance (in vivo): about 19 ml/min·kg | indications of liver toxicity ([3]; 39 clinical trials, IV infusion rate less than 1.2 mg/kg/h, bolus less than 1 mg/kg): no indications of liver toxicity | reduction of opioid consumption ([3]; low-dose intravenous (IV) ketamine): 40% | mean immediate response (% relief) [4]: ≤ 92% | patients with alteration in hepatic enzyme profile [4]: four patients | patients with hallucinations [4]: six patients

CN[C@]1(c2ccccc2Cl)CCCCC1=O [S-ketamine]
potency in NMDAR binding relative to R-ketamine (NMDA receptor): about 4 times | in vivo potency difference between the two enantiomers [5]: about 4 times | potency relative to racemic ketamine (orofacial pain): 2 times | mean difference in morphine consumption versus placebo [6]: 42 mg

C[C@]12N[C@H](Cc3ccccc31)c1ccccc12 [MK-801]
effect on analgesia (NMDAR): anti-analgesic effect

CN[C@@]1(c2ccccc2Cl)CCCCC1=O [R-ketamine]
psychotomimetic side effects and abuse liability ([7]; animal models): free of psychotomimetic side effects and abuse liability | antidepressant effectiveness versus S-ketamine ([7]; model animal studies): more effective as an antidepressant than S-ketamine
